# Tests used:
# [1] = target: T1, hEP2 (Homo sapiens, UniProt P43116); experiment: hEP2 cAMP assay; format: cell-based; settings: HEK293 cells overexpressing hEP2; PGE2 agonist 400 pM; graded per Table 21; read-out: IC50 (nM) EP2 cAMP
# T1 construct: expressed in transfected cells; host or cells: HEK293
# How it was run: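 HEK293 cells overexpressing hEP2, serum-starved 4 h, then 1,000 cells/well treated with compound (10 μM–0.001 nM) plus 400 pM PGE2 (about EC50-80) in HBSS buffer with 0.5 mM IBMX for 12 min at room temperature. cAMP measured by TR-FRET (665/615 nm) as % of DMSO control; IC50 from 4-parameter fit, median of repeats.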
# [2] = target: T2, hEP4 (Homo sapiens, UniProt P35408); experiment: hEP4 cAMP assay; format: cell-based; settings: HEK293 cells overexpressing hEP4; PGE2 agonist 20 nM; graded per Table 21; read-out: IC50 (nM) EP4 cAMP
# T2 construct: expressed in transfected cells; host or cells: HEK293
# How it was run: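 HEK293 cells overexpressing hEP4, starved 4 h, were treated with compound (10 μM-0.001 nM) plus 20 nM PGE2 (EC50-80) in HBSS buffer with 0.5 mM IBMX for 18.5 min at room temperature. cAMP was read by TR-FRET (665/615 nm) as % of DMSO control; IC50 from 4-parameter fit, median of multiple experiments.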
# T1 sequence (P43116 whole entry): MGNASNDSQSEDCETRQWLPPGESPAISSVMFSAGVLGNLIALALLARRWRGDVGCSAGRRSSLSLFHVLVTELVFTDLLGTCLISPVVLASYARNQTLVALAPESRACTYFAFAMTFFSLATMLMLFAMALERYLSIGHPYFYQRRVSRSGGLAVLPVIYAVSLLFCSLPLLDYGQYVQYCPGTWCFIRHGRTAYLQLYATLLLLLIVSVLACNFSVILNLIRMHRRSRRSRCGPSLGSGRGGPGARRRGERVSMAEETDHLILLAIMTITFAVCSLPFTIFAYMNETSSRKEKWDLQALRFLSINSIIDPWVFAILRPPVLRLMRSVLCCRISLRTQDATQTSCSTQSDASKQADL
# T2 sequence (P35408 whole entry): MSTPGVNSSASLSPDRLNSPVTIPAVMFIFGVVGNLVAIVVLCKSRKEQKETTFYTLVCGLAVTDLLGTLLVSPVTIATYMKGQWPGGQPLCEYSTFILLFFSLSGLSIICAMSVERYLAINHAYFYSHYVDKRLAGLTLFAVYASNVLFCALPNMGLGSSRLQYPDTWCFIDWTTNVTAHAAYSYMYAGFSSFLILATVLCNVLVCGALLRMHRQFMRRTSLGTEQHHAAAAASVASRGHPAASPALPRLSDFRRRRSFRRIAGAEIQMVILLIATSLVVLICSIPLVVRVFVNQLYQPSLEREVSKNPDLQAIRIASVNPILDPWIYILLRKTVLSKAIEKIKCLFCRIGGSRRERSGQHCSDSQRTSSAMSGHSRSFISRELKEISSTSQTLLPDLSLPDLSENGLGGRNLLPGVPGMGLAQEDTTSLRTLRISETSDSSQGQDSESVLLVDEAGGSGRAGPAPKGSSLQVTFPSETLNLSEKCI
SMILES,IC50 [1],IC50 [2]
"COc1cncc(-c2ccc(Cn3ccc4scc(C(=O)NC5CC6(C5)CC(C(=O)O)C6)c43)cc2)c1 (centres unmarked) [Example 101, 6-(4-(4-(5-methoxypyridin-3-yl)benzyl)-4H-thieno[3,2-b]pyrrole-3-carboxamido)spiro[3.3]heptane-2-carboxylic acid]",500 to 5000 nM,< 500 nM
"Cn1cc(-c2ccc(Cn3ccc4scc(C(=O)NC5CC6(C5)CC(C(=O)O)C6)c43)cc2)cn1 (centres unmarked) [Example 102, 6-(4-(4-(1-methyl-1H-pyrazol-4-yl)benzyl)-4H-thieno[3,2-b]pyrrole-3-carboxamido)spiro[3.3]heptane-2-carboxylic acid]",> 10000 nM,< 500 nM
"O=C(NC1CC2(C1)CC(C(=O)O)C2)c1csc2ccn(Cc3ccc4c(ccn4Cc4ccccc4)c3)c12 (centres unmarked) [Example 103, 6-(4-((1-benzyl-IH-indol-5-yl)methyl)-4H-thieno[3,2-b]pyrrole-3-carboxamido)spiro[3.3]heptane-2-carboxylic acid]",> 10000 nM,< 500 nM
"O=C(NC1CC2(C1)CC(C(=O)O)C2)c1csc2ccn(Cc3ccc(-c4ccccn4)cc3)c12 (centres unmarked) [Example 104, 6-(4-(4-(pyridin-2-yl)benzyl)-4H-thieno[3,2-b]pyrrole-3-carboxamido)spiro[3.3]heptane-2-carboxylic acid]",5000 to 10000 nM,< 500 nM
"O=C(NC1CC2(C1)CC(C(=O)O)C2)c1csc2ccn(Cc3ccc(-c4ccccc4)nc3)c12 (centres unmarked) [Example 105, 6-(4-((6-phenylpyridin-3-yl)methyl)-4H-thieno[3,2-b]pyrrole-3-carboxamido)spiro[3.3]heptane-2-carboxylic acid]",500 to 5000 nM,< 500 nM
"O=C(NC1CC2(C1)CC(C(=O)O)C2)c1csc2ccn(Cc3ccc(-c4ccncc4)cc3)c12 (centres unmarked) [Example 106, 6-(4-(4-(pyridin-4-yl)benzyl)-4H-thieno[3,2-b]pyrrole-3-carboxamido)spiro[3.3]heptane-2-carboxylic acid]",5000 to 10000 nM,< 500 nM
"O=C(NC1CC2(C1)CC(C(=O)O)C2)c1csc2ccn(Cc3ccc(-n4cccn4)cc3)c12 (centres unmarked) [Example 107, 6-(4-(4-(1H-pyrazol-1-yl)benzyl)-4H-thieno[3,2-b]pyrrole-3-carboxamido)spiro[3.3]heptane-2-carboxylic acid]",> 10000 nM,500 to 5000 nM
"COc1cccc(-c2ccc(Cn3ccc4scc(C(=O)NC5CC6(C5)CC(C(=O)O)C6)c43)cc2)n1 (centres unmarked) [Example 108, 6-(4-(4-(6-methoxypyridin-2-yl)benzyl)-4H-thieno[3,2-b]pyrrole-3-carboxamido)spiro[3.3]heptane-2-carboxylic acid]",500 to 5000 nM,< 500 nM
"COc1ccnc(-c2ccc(Cn3ccc4scc(C(=O)NC5CC6(C5)CC(C(=O)O)C6)c43)cc2)c1 (centres unmarked) [Example 109, 6-(4-(4-(4-methoxypyridin-2-yl)benzyl)-4H-thieno[3,2-b]pyrrole-3-carboxamido)spiro[3.3]heptane-2-carboxylic acid]",500 to 5000 nM,< 500 nM
"COc1cc(F)cc(-c2ccc(Cn3ccc4scc(C(=O)NC5CC6(C5)CC(C(=O)O)C6)c43)cn2)c1 (centres unmarked) [Example 110, 6-(4-((6-(3-fluoro-5-methoxyphenyl)pyridin-3-yl)methyl)-4H-thieno[3,2-b]pyrrole-3-carboxamido)spiro[3.3]heptane-2-carboxylic acid]",< 500 nM,< 500 nM
"Cc1cnn(-c2ccc(Cn3ccc4scc(C(=O)NC5CC6(C5)CC(C(=O)O)C6)c43)cc2)c1 (centres unmarked) [Example 111, 6-(4-(4-(4-methyl-1H-pyrazol-1-yl)benzyl)-4H-thieno[3,2-b]pyrrole-3-carboxamido)spiro[3.3]heptane-2-carboxylic acid]",> 10000 nM,< 500 nM
"Cc1cc(C(F)(F)F)n(-c2ccc(Cn3ccc4scc(C(=O)NC5CC6(C5)CC(C(=O)O)C6)c43)cc2)n1 (centres unmarked) [Example 112, 6-(4-(4-(3-methyl-5-(trifluoromethyl)-IH-pyrazol-1-yl)benzyl)-4H-thieno[3,2-b]pyrrole-3-carboxamido)spiro[3.3]heptane-2-carboxylic acid]",> 10000 nM,500 to 5000 nM
"COc1cc(F)cc(-c2ccc(Cn3ccc4scc(C(=O)NC5CC6(C5)CC(C(=O)O)C6)c43)nc2)c1 (centres unmarked) [Example 113, 6-(4-((5-(3-fluoro-5-methoxyphenyl)pyridin-2-yl)methyl)-4H-thieno[3,2-b]pyrrole-3-carboxamido)spiro[3.3]heptane-2-carboxylic acid]",500 to 5000 nM,< 500 nM
